Patent publication US20080260705A1, “Preventing Arrhythmias Associated with Cell Transplantation” (The Johns Hopkins University, priority 2004, published 2008)

Key:
[1] = test system: SkM:NRVM co-cultures; test: Pharmacological intervention for induced reentrant arrhythmias, optical mapping of mixed co-cultures; type: cell-based; conditions: n=12
Description: Human skeletal myoblasts were obtained from Cambrex (Walkersville, Md.) and grown in myoblast basal growth medium (SkBM, Clonetics) containing 10% fetal bovine serum, recombinant human epidermal factor (10 ng/ml), dexamethasone (3 μg/ml), L-glutamine, Gentamicin and Amphotericin-B, at 37° C. and 5% CO2. (Vials obtained from Cambrex contained 70-80% myoblasts, and the remainder were fibroblasts). The cells were seeded at 3,500 cells/cm^2 and maintained at cell densities of 60-70% to prevent myotube formation during the culture process. Cells were transduced with lentivirus on their second passage and frozen at −80° C. or amplified up to 10 population doublings. For co-cultures, myoblasts were dissociated using trypsin, counted and then used.
Cells were re-suspended in M199 culture medium (Life Technologies, Rockville, Md.), supplemented with 10% heat-inactivated fetal bovine serum (Life Technologies), differentially pre-plated in two 45 minute steps, and then counted using a hemocytometer. For control experiments, 10^6 cells were plated on 22 mm plastic coverslips coated with fibronectin (25 μg/ml). On day 2 after cell plating, serum was reduced to 2%.
Myoblasts and NRVMs were co-cultured (isotropic) on 22 mm plastic cover slips (coated with fibronectin, 25 μg/ml) for 9-11 days and then used for optical mapping. In an initial set of experiments, 0.5×10^6 NRVMs were plated over half of the cover slip, with the other half covered by a PDMS stamp coated with fibronectin (50 μg/ml). The PDMS stamp was removed 24 hours later and 0.5×10^6 myoblasts transduced with Lv-GFP were then plated. […] In a second set of experiments, the myoblasts (transduced with LvGFP) and NRVMs were plated at the same time in varying ratios: 1:1, 1:4 and 1:9 to study the electrophysiologic consequences of mixing the two cell types.
(§1) Coverslips were visually inspected under a microscope. Monolayers with obvious gaps in confluency and non-beating cultures were rejected. The coverslips were placed in a custom-designed chamber, stained with 5 μM di-4-ANEPPS (Molecular Probes; Eugene, Oreg.) for 5 min and continuously superfused with warm (36.5° C.) oxygenated Tyrode solution consisting of (in mM) 135 NaCl, 5.4 KCl, 1.8 CaCl2, 1 MgCl2, 0.33 NaH2PO4, 5 HEPES, and 5 Glucose. A unipolar point or area electrode (4 bipolar line electrodes) was used to stimulate the cells in culture. Action potentials were recorded from 253 sites using a modified custom-built contact fluorescence imaging system.^15 The recording chamber was placed directly above a fiber bundle with fibers arranged in a 17 mm-diameter hexagonal array. A light emitting diode (LED) light source with an interference filter (530+/−25 mm) delivered excitation light to the chamber. […]

[2] = test system: L-type calcium channel; test: Nitrendipine dose response curve: APD and conduction velocity by optical mapping; type: cell-based; conditions: nitrendipine 5 μM
Description: as §1
Baseline drift was reduced by subtraction of a fitted polynomial curve from the optical signal. […] To compare velocities among different episodes in the same monolayer, conduction velocity was calculated along the same path and averaged over different stimulus responses. […] Data are expressed as Mean +/−SEM unless stated otherwise. Differences between means were assessed using the Student's t test or Fischer's exact test.

| Compound | termination of reentry ([1]; lidocaine 200 μM superfused, co-cultures) | slowed the reentry rate ([1]; lidocaine 200 μM superfused, induced reentry in co-cultures) | slowed the reentrant rhythms ([1]; nitrendipine 5 μM superfused, before termination) | time to abrupt termination of reentry ([1]; nitrendipine 5 μM, in all co-cultures) | shortened APD [2] |
| --- | --- | --- | --- | --- | --- |
| CCN(CC)CC(=O)Nc1c(C)cccc1C [lidocaine] | did not terminate it in the majority of co-cultures | 70-80% | – | – | – |
| CCOC(=O)C1=C(C)NC(C)=C(C(=O)OC)C1c1cccc([N+](=O)[O-])c1 (centres unmarked) [nitrendipine] | – | – | 10-20% | ≤ 5 min | 50% |
